Reference: patent EP0729362B1, “TRANSDERMAL COMPOSITION OF N- N- 5- 4-(AMINOIMINOMETHYL)PHENYL]-1-OXOPENTYL]-L-alpha-ASPARTYL]-L-PHENYLALANINE OR ITS ESTERS AND THEIR PHARMACEUTICALLY ACCEPTABLE SALTS” (G.D. SEARLE & CO., priority 1993, dated 1995)

Assay: transdermal shaved rat model: delivery of tritiated compound from a gel patch, counted in urine and feces
Type: in vivo, Rats
Conditions: 2.5 cm^2 patch
Description: Rats were anesthetized with N2O/O2 and [sequence] fluorocarbon anesthesia using a metering device (Quantifier VMC Anesthesia Machine, Matrix Media Inc.) The rat's back was carefully shaved using an electric razor the day before the transdermal experiment, and no abrasions in the skin surface were apparent.
Compound was applied to the skin using a Hilltop Chamber® transdermal delivery plastic device, in which the compound was contained in a 3% hydroxypropyl cellulose gel. The device was glued in place using cyanomethacrylate (Superbinder 495, Newark Electronics).
The aqueous formulation was 2% in N-[N-[5-[4-(aminoiminomethyl)phenyl]-1-oxopentyl]-L-α-aspartyl]-L-phenylalanine, monohydrochloride (10 mg N-[N-[5-[4-(aminoiminomethyl)phenyl]-1-oxopentyl]-L-α-aspartyl]-L-phenylalanine, monohydrochloride 0.5 ml gel/2.5 cm^2 patch). […] The amount of compound in a sample was calculated from the number of counts detected and the specific radioactivity of the compound in the patch.
Urine and feces were collected daily after patch application as indicated in the Table I. Counts were combined to achieve the total amount delivered. Urine was counted directly by scintillography (Hionic Fluid, Packard Co., Mark III), while feces, were processed by mechanical mixing in saline followed by oxidization of a dried aliquot to tritiated water in an oxidizer (Oxidizer Machine, Packard).

For `CCOC(=O)C[C@H](NC(=O)CCCCc1ccc(C(=N)N)cc1)C(=O)N[C@@H](Cc1ccccc1)C(=O)OCC` [N-[N-[5-[4-(aminoiminomethyl)phenyl]-1-oxopentyl]-L-α-aspartyl]-L-phenylalanine diethyl ester], which average amount delivered (urine and feces counts combined for the total amount delivered) is on record?
The average amount delivered was 4.6 ± 1.9 mg.

For “N-[N-[5-[4-(aminoiminomethyl)phenyl]-1-oxopentyl]-L-α-aspartyl]-L-phenylalanine, monohydrochloride”, which “average amount delivered into the urine” value (amount calculated from [3H] counts) is on record?
Its value is 48 mg.
